The values below come from patent publication US20040219622A1, “Phosphine-containing formulations for chemiluminescent luciferase assays” (priority 2001, published 2004).

Holding throughout (assay type): biochemical
In test [1] the target is T1, firefly luciferase (Photinus pyralis, UniProt P08659). Put plainly: Firefly luciferase reaction with additives TCEP, CoA, DTT alone or combined (Example 3). The following applies: CoA 0.5 mM, DTT 5 mM, light output then rapidly decreased. On the procedure: A common firefly luciferase reaction mix was prepared by combining stock solutions of Tris/Mg buffer, D-luciferin, and ATP. A 600 μl aliquot of this mix consisted of 480 μl of 0.1 M Tris, 10 mM MgCl2, pH 8.0, 85 μl of 10 mM D-luciferin in 0.1 M Tris, pH 8.0, and 17 μl of 50 mM ATP (1889485) in 0.1 M Tris, pH 8.0. Separate aliquots of the reaction mixture were then supplemented with various combinations of additives selected from a 0.5 M TCEP solution, a stock solution of CoA (5 mM CoA in 0.1 M Tris, pH 8.0), or a stock solution of DTT (50 mM DTT in 0.1 M Tris, pH 8.0) and then brought to a final volume of 1 ml with 0.1 M Tris, pH 8.0. In such fashion, the following solutions were obtained: a solution with no additives (None), TCEP (T), TCEP plus CoA (TC), TCEP plus DTT (TD), TCEP plus CoA plus DTT (TCD), CoA (C), CoA plus DTT (CD), and DTT (D or DTT). Where used, the final concentrations of TCEP, CoA, and DTT were 50, 0.5, and 5 mM, respectively. […]
T1 sequence (P08659 whole entry): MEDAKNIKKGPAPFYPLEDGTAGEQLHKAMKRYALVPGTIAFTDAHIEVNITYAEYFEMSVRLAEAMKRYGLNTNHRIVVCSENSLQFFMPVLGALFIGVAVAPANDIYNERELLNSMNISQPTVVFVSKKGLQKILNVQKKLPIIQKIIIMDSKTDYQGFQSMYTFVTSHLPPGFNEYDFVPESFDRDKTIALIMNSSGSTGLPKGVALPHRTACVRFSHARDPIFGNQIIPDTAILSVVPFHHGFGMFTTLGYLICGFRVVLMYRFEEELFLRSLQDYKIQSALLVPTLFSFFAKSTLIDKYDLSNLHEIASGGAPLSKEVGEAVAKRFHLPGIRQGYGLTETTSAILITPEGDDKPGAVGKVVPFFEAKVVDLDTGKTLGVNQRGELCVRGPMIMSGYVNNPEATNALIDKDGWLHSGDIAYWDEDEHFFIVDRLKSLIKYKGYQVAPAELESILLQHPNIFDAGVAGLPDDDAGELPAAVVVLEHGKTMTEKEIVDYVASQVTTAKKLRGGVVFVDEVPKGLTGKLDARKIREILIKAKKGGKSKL
Firefly luciferase was diluted from a stock solution (2 μl of 14.7 mg/ml) with 0.1 M Tris, pH 8.0, containing 2 mg/ml bovine serum albumin. […] The plate was immediately placed into an Orion Luminometer, and light output from the plate wells was measured with sequential plate reading cycles over a one hour time frame, each cycle allowing the wells of the plate to be read with a time interval of approximately 140 seconds.

The target of test [2] is T1, firefly luciferase. Put plainly: ATP assay with TCEP in firefly luciferin-luciferase reaction (Example 4). The following applies: 5 mM DTT; 33.3 mM TCEP; 0-500 μM ATP. As for the experimental part:
A common solution was prepared by combining stock solutions of Tris/Mg buffer, D-luciferin, and TCEP. A 2.25 ml aliquot of this solution contained 1.2 ml of 0.1 M Tris, 10 mM MgCl2, pH 8.0, 18.75 μl of 10 mM D-luciferin in 0.1 M Tris, pH 8.0, 165 μl of 0.5 M TCEP, with the remaining volume being 0.1 M Tris, pH 8.0. 0.5 ml of this mixture was removed and to it was added 11 μl of an ATP stock solution (50 mM ATP in 0.1 M Tris, pH 8.0) and 39 μl of 0.1 M Tris, pH 8.0; the remaining 1.75 ml of mixture received 175 μl of 0.1 M Tris, pH 8.0. The ATP-containing aliquot was then serially diluted with the non-ATP-containing mixture to yield a final ATP concentration series of 500, 250, 125, 62.5, 31.25, 15.625, and 0 μM. The non-ATP-containing mixture served as the control for zero ATP concentration. In this series of reaction mixtures with varying concentrations of ATP, the final luciferin, magnesium, and TCEP concentrations were 75.8 μM luciferin, 4.8 mM magnesium, and 33.3 mM TCEP. […]
Firefly luciferase was diluted from a stock solution (2 μl of 14.7 mg/ml) with 0.1 M Tris, pH 8.0 containing 2 mg/ml bovine serum albumin. […] The plate was immediately placed into an Orion Luminometer and light output from the wells was measured with sequential plate reading cycles, each cycle allowing the wells of the plate to be read with a time interval of approximately 2.25 minutes. […]

The target of test [3] is T1, firefly luciferase. Put plainly: TCEP-mediated firefly luciferase reaction with DTT series (Example 5). The following applies: 33.5 mM TCEP; for signal decrease from first reading cycle to 11 minutes 34 seconds later: no added DTT. On the procedure: A common solution was prepared by combining stock solutions of Tris/Mg buffer, D-luciferin, TCEP, and ATP. This solution was prepared by combining 12 ml of 0.1 M Tris, 10 mM MgCl2, pH 8.0, 187.5 μl of 10 mM D-luciferin in 0.1 M Tris, pH 8.0, […] 0.5 M TCEP, and 30 μl of an ATP stock solution (50 mM ATP in 0.1 M Tris, pH 8.0) and 1.02 ml of 0.1 M Tris, pH 8.0. A 150 μl aliquot of this solution was added to 100 μl of 50 mM DTT stock solution (50 mM DTT in 0.1 M Tris, pH 8.0) for a final DTT concentration of 20 mM, and another 1.35 ml aliquot of the solution received 0.9 ml 0.1 M Tris, pH 8.0. The 20 mM DTT reaction solution was further diluted with the second aliquot to give a final DTT concentration series of […], and 0 mM DTT. In this series of reaction mixtures with varying concentrations of DTT, the final luciferin, magnesium, and TCEP concentrations were 75.5 μM luciferin, 4.8 mM magnesium, and 33.5 mM TCEP and 238 μM ATP. Other reaction mixtures with varying DTT concentrations were also prepared in like fashion, but with a final ATP concentration held constant at either 59.5, 29.75 or 14.875 μM, which was achieved by further dilution of the ATP solution with 0.1 M Tris, pH 8.
Firefly luciferase was diluted from a stock solution (2 μl of 14.7 mg/ml) with 0.1 M Tris, pH 8.0, containing 2 mg/ml bovine serum albumin. 10 μl aliquots containing 181 pg of enzyme were aliquoted into the wells of an opaque white 96-well microplate, after which 100 μl of the reaction mixtures with varying DTT concentrations were added. The plate was immediately placed into an Orion Luminometer, and light output from the wells was measured with sequential plate reading cycles, each cycle allowing the wells of the plate to be read with a time interval of approximately 2.25 minutes.
FIGS. 10 and 11 illustrate the results of this experiment. FIG. 10 illustrates the results obtained where the final ATP concentration of the reaction mixture was 238 μM, and FIG. 11 illustrates the results obtained where the final ATP concentration of the reaction mixture was 30 μM. Both graphs relate the observed RLU at each reading cycle expressed as a relative percentage of the signal obtained with the well receiving no DTT supplementation at the first reading cycle, with this signal being assigned 100%.

Test [4] addresses T2, Renilla luciferase (Renilla reniformis, UniProt P27652).
T2 construct: purchased Chemicon 4400
T2 sequence (P27652 1-311): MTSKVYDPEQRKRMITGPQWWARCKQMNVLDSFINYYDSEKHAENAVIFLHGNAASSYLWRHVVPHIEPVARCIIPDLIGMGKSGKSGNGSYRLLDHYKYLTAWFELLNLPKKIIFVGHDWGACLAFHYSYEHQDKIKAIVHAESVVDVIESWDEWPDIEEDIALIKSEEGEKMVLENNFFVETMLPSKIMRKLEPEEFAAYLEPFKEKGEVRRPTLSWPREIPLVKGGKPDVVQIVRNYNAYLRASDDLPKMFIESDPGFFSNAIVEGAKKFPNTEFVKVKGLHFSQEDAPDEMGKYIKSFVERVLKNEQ
The test is described as follows: Renilla luciferase assay with or without TCEP (Example 6). The following applies: 33.3 μl of 0.5 M TCEP added to 466.7 μl coelenterazine assay mixture. As for the experimental part: In order to ascertain whether or not TCEP would interfere with a Renilla assay, an experiment was conducted utilizing a Renilla assay mixture, with or without TCEP supplementation. A Renilla assay mixture was prepared by combining 480 μl of 0.1 M Tris, 10 mM MgCl2, 1 mM EDTA, pH 8.0, with 437.7 μl of 0.1 M Tris, pH 8.0, and 16.7 μl of a coelenterazine stock solution (59 μM coelenterazine in denatured ethanol prepared from Molecular Probes Catalog number C-6777). This solution was split into 2 aliquots of 466.7 μl, and one aliquot received 33.3 μl of 0.5 M TCEP and the other aliquot received 33.3 μl 0.1 M Tris, pH 8.0.
Renilla luciferase purchased from Chemicon (Catalog number 4400) was diluted with 1 ml phosphate-buffered saline (10 mM sodium phosphate, 150 mM NaCl, pH 7.2) and stored frozen at −80° C. in 10 μl aliquots, each aliquot containing 100 ng enzyme. An aliquot was removed and diluted with 0.1 M Tris, pH 8.0, for a concentration series of 166, 55, 18.5, and 0 pg/10 μl. 10 μl of each enzyme concentration were pipetted in duplicate to the wells of a white opaque 96-well microplate, and 100 μl of either of the TCEP containing solution or the solution without TCEP was pipetted into the wells to initiate the reaction. The plate was immediately placed into an Orion Luminometer, and light output from the wells was measured with sequential plate reading cycles.

For test [5], the target named is T1, firefly luciferase. The test is described as follows: Firefly luciferase reaction with TCEP concentration series (Example 1). The following applies: for light output as % of the original signal: 96 mM TCEP. On the procedure: A common firefly luciferase reaction mix was prepared by combining stock solutions of Tris/Mg buffer, D-luciferin, and ATP. A 900 μl aliquot of this mix consisted of 720 μl of 0.1 M Tris, 10 mM MgCl2, pH 8.0, 150 μl of 10 mM D-luciferin in 0.1 M Tris, pH 8.0, and 30 μl of 50 mM ATP in 0.1 M Tris, pH 8.0. A series of buffered TCEP preparations were prepared from a neutral pH, 0.5 M TCEP solution (Pierce Chemical Company Product No. 77720) by dilutions with 0.1 M Tris, pH 8.0, as necessary for a TCEP concentration series of 300, 150, 75, 37.5, 18.75, 9.38, 4.69, and 0 mM TCEP. 450 μl of each TCEP concentration were then added separately to 900 μl aliquots of the previously prepared mixture, followed by a final addition of 50 μl of 0.1 M Tris, pH 8.0, to each solution for a final volume of 1.4 ml. The final TCEP concentrations were, therefore, approximately 96, 48, 24, 12, 6, 3, 1.5, and 0 mM and the final Mg, luciferin, and ATP concentrations were 5.14, 1.07, and 1.07 mM, respectively.
Firefly luciferase was diluted from a stock solution (2 μl of 14.7 mg/ml) with 0.1 M Tris, pH 8.0, containing 2 mg/ml bovine serum albumin. 10 μl aliquots containing 181 pg of enzyme were aliquoted into the wells of an opaque white 96-well microplate, after which 125 μl of the reaction mixtures with varying TCEP concentrations were added. The plate was immediately placed into an Orion Luminometer (Berthold Detection Systems), and light output from the plate wells was measured for 15 sequential plate reading cycles, each cycle allowing the wells of the plate to be read with a time interval of approximately 2 minutes.

Test [6] concerns the target T1, firefly luciferase. The test is described as follows: Firefly luciferase reaction with TCEP series plus 5 mM DTT (Example 2). As for the experimental part: In this experiment, final TCEP concentration was varied from 0-96 mM in the reaction mixture, with the reaction mixture also containing a final concentration of DTT of 5 mM. The conditions for this experiment were identical to that shown in Example 1, but with substitution of the final addition of 50 μl of 0.1 M Tris, pH 8.0, to each solution with a final addition of 50 μl of 50 mM DTT stock solution prepared in 0.1 M Tris, pH 8.0. This experiment was also conducted simultaneously and in the same microwell plate as the experiment of Example 1.

Turning to `CC(C)(COP(=O)(O)OP(=O)(O)OC[C@H]1O[C@@H](n2cnc3c(N)ncnc32)[C@H](O)[C@@H]1OP(=O)(O)O)[C@@H](O)C(=O)NCCC(=O)NCCS` [CoA, Coenzyme A], in test [1], the “initial light output compared to the no addition control” value is “increased”.

On to `O[C@H](CS)[C@H](O)CS` (racemic) [DTT, dithiothreitol], for which the “RLUs on inclusion of DTT in the TCEP reaction mixture” value in test [2] is on record as “elevated”. Also, in test [1], the “initial light output compared to the no addition control” value was “increased”. The “increase of initial RLU during the first cycle vs no DTT” value in test [3] (10 mM DTT, 30 μM ATP) is “about 8%”; in test [3] (20 mM DTT, 238 μM ATP), “about 34%”. In test [3] (20 mM DTT, 250 μM ATP), the “less light output after 11.5 minutes compared to the initial reading” value worked out at 8.5%.

In the case of `O=C(O)CCP(CCC(=O)O)CCC(=O)O` [TCEP, Tris(2-carboxyethyl) phosphine], the “reduction of background (no added enzyme) compared to absence of TCEP” value in test [4] is reported as 50%. Further, the “light output as % of the original signal” value turned out to be 49% in test [5] (fourth reading cycle) and 32% in test [5] (last reading cycle). For the same molecule, in test [5] (TCEP 1.5, 3 and 6 mM), the “initially observed light output compared to the control reaction (no TCEP)” value was “significantly higher”. Moreover, the “originally observed signal retained at the last reading cycle” value in test [5] (TCEP 1.5-96 mM, 15th reading cycle, about 2 min per cycle, 181 pg enzyme, control lost >90%) is reported as 32 to 78%. The “RLU at the fifteenth reading cycle compared to control with DTT but without TCEP” value in test [6] (1.5-24 mM TCEP + 5 mM DTT) was “greater RLU”. Besides, the “initial RLU compared to the control reaction (DTT without TCEP)” value in test [6] (1.5 or 3 mM TCEP, 5 mM DTT) was “greater”. The “retention of originally observed light output at last reading cycle compared to control” value in test [6] (all TCEP concentrations (1.5-96 mM), 5 mM DTT) was “greater retention”. The “signal decrease from first reading cycle to 11 minutes 34 seconds later” value in test [3] (30 μM ATP) and in test [3] (250 μM ATP) was “about 6%” throughout.
